Like-named read-outs stand apart in the source and are kept apart here. Marks after values point to notes of the source that are not given here.
Experiments:
Wistar rats [1] = experiment: Conflict drinking test (Vogel test) in Wistar rats; assay type: in vivo, rat; details: for Minimum effective dose, conflict drinking (Vogel test) in rats (potential anxiolytic properties): IP, 60 minutes before the test, Wistar rats
Procedure: (§1) For intraperitoneal (i.p.) administration: to the desired quantity of the solid compound in a glass beaker, required volume of sterile water for injection was added and swirled with glass bar until complete dissolution of the compound.
(§2) Animals. Male Wistar rats weighing 220-250 g were used in the test. […] All animals were kept in an environmentally controlled rooms (ambient temperature 22±2° C; relative humidity 50-60%; 12:12 light:dark cycle, lights on at 8:00). They were allowed to acclimatize with the environment for one week before commencement of the experiments. Standard laboratory food (Ssniff M-Z) and filtered water were freely available. The experiments were conducted in the light phase between 09.00 and 14.00 hours. 1 h before the start of the experiment, rats were transferred to the experimental room for acclimation.
Apparatus and procedure. […] Experimental chambers were connected to PC software by control chassis and electric shocks' generator. On the first day of the experiment, the rats were adapted to the test chambers for 10 min. […] Afterwards, they were allowed a 30-min free-drinking session in their home cages. […] Recording data started immediately after the first lick and every 20 licks rats were punished with an electric shock (0.5 mA, lasting 1 s). The impulses were released via the spout of the drinking bottles. If a rat was drinking when an impulse was released, it received a shock. The number of licks and the number of shocks received during a 5-min experimental session was recorded automatically.
(§3) Experimental design. The compounds were administered IP, 60 minutes before the test.
(§4) Drugs. The experimental compounds were dissolved in the distilled water. All compounds were administrated in the volume of 2 ml/kg.

dopamine D2L receptor = dopamine D2L receptor (Homo sapiens, UniProt P14416); experiment: Radioligand binding, D2 ([3H]-raclopride displacement)
dopamine D2L receptor, sequence (P14416 whole entry): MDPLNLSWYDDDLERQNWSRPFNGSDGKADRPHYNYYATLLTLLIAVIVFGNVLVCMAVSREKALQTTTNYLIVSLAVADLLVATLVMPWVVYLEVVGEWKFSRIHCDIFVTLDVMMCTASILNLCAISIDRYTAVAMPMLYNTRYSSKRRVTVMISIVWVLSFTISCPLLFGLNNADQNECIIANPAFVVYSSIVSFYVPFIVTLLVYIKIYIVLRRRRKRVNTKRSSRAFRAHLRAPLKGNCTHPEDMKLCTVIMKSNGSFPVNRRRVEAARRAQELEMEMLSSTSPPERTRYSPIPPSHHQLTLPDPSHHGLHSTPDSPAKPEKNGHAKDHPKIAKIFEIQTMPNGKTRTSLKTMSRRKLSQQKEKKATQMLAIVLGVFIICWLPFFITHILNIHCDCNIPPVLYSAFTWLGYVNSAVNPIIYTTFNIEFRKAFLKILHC

5-HT2C receptors = target: T1, 5-HT2C receptors (Homo sapiens, UniProt P28335); experiment: biochemical; details: read-out: % inhibition of control binding at 10^−6M, 5-HT2C
T1 sequence (P28335 33-458): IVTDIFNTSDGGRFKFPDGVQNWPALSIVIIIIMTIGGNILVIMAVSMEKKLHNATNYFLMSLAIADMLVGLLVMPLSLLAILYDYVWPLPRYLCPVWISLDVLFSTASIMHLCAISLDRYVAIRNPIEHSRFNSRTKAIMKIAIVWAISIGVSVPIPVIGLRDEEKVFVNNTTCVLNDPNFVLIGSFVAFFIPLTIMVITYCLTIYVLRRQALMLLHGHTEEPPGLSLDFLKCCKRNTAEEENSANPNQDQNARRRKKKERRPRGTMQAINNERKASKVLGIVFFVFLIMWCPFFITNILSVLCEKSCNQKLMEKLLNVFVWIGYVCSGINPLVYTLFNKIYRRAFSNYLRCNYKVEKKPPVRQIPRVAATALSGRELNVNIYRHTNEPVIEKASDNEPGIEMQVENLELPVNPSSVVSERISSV
Procedure: (§5) Each compound was tested in duplicate at 10^-6 M concentration.

M1 receptors = target: T2, M1 receptors (Homo sapiens, UniProt P11229); experiment: biochemical; details: read-out: % inhibition of control binding at 10^−6M, M1
T2 sequence (P11229 1-460): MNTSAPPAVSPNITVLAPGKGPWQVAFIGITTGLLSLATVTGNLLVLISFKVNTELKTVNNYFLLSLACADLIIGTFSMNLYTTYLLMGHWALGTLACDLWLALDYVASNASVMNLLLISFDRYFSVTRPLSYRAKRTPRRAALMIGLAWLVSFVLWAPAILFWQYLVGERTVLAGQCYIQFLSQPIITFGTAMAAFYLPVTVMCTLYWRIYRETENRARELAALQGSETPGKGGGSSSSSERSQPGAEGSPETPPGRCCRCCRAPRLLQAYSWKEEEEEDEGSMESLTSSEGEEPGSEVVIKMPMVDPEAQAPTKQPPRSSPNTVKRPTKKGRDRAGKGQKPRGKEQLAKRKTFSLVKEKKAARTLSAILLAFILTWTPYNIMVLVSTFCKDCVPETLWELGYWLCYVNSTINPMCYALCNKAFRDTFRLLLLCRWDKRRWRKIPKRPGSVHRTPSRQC
Procedure: as §5

D3 receptors = D3 receptors (Homo sapiens, UniProt P35462); experiment: biochemical; details: read-out: % inhibition of control binding at 10^−6M, D3
D3 receptors, sequence (P35462 whole entry): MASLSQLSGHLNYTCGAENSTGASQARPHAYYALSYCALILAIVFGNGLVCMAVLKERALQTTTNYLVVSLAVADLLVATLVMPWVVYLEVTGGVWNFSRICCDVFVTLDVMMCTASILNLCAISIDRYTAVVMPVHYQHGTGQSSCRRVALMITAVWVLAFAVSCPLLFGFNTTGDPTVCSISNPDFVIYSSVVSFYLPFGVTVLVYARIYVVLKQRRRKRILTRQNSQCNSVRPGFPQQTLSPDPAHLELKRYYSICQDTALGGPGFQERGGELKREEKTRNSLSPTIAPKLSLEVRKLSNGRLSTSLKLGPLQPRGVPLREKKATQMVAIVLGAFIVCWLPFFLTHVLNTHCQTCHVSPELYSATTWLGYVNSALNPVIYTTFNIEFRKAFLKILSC
Procedure: as §5

Wistar rats [2] = experiment: Forced swim test (FST) in Wistar rats; assay type: in vivo, rat; details: for Minimum effective dose, forced swim test in rats (potential antidepressant properties): IP, 60 minutes before the test, Wistar rats
Procedure: as §1, §2
Apparatus and procedure. […] On the first day of experiment, the animals were gently individually placed in Plexiglas cylinders (40 cm high, 18 cm in diameter) containing 15 cm of water maintained at 25° C. for 15 min. Upon removal from water, the rats were placed in a Plexiglas box for 30 min under a 60-W bulb to dry off. On the following day, the rats were placed again in the cylinder and the total duration of immobility was recorded throughout the 5-min test period. Fresh water was used for each animal.
as §3, §4

5-HT7 receptor = 5-HT7 receptor (Homo sapiens, UniProt P34969); experiment: Radioligand binding, 5-HT7 ([3H]-5-CT displacement)
5-HT7 receptor, sequence (P34969 1-432 limits assumed): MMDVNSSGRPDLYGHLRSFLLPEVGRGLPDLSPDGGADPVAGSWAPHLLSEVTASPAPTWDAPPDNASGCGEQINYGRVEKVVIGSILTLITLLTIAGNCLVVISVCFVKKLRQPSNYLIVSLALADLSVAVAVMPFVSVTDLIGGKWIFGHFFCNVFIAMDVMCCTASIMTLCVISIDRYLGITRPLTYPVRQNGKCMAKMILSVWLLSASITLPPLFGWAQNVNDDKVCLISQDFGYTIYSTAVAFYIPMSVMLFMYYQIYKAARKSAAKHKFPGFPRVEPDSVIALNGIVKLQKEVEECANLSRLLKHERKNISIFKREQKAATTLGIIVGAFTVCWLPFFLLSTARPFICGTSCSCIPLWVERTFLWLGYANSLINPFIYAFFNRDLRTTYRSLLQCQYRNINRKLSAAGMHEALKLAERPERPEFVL

5-HT1A receptor = target: T3, 5-HT1A receptor (Homo sapiens, UniProt P08908); experiment: Radioligand binding, 5-HT1A ([3H]-8-OH-DPAT displacement)
T3 sequence (P08908 1-422): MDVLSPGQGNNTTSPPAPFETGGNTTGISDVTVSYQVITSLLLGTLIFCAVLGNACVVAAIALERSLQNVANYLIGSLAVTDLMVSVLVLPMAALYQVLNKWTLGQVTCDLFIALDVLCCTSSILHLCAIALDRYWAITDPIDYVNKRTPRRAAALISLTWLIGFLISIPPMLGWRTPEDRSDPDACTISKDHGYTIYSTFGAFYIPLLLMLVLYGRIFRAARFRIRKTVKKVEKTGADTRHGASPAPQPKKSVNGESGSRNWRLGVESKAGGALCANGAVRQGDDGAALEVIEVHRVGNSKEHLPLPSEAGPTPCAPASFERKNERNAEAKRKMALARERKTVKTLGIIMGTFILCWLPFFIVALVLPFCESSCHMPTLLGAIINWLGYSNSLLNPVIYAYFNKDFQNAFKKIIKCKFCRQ

H1 receptors = H1 receptors (Homo sapiens, UniProt P35367); experiment: biochemical; details: read-out: % inhibition of control binding at 10^−6M, H1
H1 receptors, sequence (P35367 whole entry): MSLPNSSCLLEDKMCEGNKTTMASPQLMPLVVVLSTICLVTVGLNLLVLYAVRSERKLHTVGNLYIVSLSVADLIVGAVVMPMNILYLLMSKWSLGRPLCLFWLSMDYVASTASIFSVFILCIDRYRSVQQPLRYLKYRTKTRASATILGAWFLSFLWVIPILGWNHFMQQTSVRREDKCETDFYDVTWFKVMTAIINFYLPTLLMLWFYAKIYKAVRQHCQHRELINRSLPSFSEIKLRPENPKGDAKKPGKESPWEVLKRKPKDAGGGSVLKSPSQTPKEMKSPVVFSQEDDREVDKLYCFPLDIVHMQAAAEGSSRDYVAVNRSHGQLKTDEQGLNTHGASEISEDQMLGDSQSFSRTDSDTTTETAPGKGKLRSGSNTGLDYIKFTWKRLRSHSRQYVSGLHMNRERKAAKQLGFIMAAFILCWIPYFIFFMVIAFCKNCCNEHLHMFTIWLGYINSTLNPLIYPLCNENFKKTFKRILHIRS
Procedure: as §5

5-HT6 receptor = 5-HT6 receptor (Homo sapiens, UniProt P50406); experiment: Radioligand binding, 5-HT6 ([3H]-LSD displacement); details: 10^−6 M; values marked c in the 5-HT6 column
5-HT6 receptor, sequence (P50406 whole entry): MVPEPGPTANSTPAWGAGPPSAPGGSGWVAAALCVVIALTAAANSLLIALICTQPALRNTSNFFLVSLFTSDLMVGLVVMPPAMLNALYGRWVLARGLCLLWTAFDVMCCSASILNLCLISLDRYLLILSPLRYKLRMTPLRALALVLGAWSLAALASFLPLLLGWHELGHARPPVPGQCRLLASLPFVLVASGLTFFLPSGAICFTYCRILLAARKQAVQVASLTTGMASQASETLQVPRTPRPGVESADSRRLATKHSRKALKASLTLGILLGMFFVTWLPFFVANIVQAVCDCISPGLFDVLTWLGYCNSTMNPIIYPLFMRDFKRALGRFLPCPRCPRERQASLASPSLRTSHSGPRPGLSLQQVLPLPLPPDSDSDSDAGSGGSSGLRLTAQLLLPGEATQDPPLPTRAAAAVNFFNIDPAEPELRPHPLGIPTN

Sprague-Dawley rats = experiment: Novel object recognition (NOR) test in Sprague-Dawley rats, PCP-induced deficit; assay type: in vivo, rat
Procedure: Rats were allowed to acclimatize for at least 7 days before the start of the experimental procedure. During this week animals were handled for at least 3 times. Behavioral testing was carried out during the light phase of the light/dark cycle. At least 1 h before the start of the experiment, rats were transferred to the experimental room for acclimation.
Apparatus and procedure. Rats were tested in a dimly lit (25 lx) “open field” apparatus made of a dull gray plastic (66×56×30 cm). After each measurement, the floor was cleaned and dried.
The procedure lasting for 2 days consisted of the habituation to the test arena (without any objects) for 5 min. The test session comprising of two trials separated by an inter-trial interval (ITI) of 1 h was carried out on the next day. […]
Exploration time of the objects and the distance traveled were measured using the Any-maze® video tracking system. Based on exploration time (E) of two objects during T2, discrimination index (DI) was calculated according to the formula: […]

[3] = read-out: Ki 5-HT1A, cloned human receptor in HEK293, three independent experiments, SEM ± 22%

SMILES | Minimum effective dose, conflict drinking (Vogel test) in rats (potential anxiolytic properties) (Wistar rats [1]) [mg/kg] | Ki (dopamine D2L receptor) [nM] | inhibition at 1 µM (5-HT2C receptors) [%] | inhibition at 1 µM (M1 receptors) [%] | inhibition at 1 µM (D3 receptors) [%] | Minimum effective dose, forced swim test in rats (potential antidepressant properties) (Wistar rats [2]) [mg/kg] | Ki (5-HT7 receptor) [nM] | Ki (5-HT1A receptor) [nM] | also measured
O=S(=O)(c1cccc(Cl)c1)n1ccc2c(N[C@H]3CCNC3)nc3ccccc3c21 [Compound 6, (S)-1-((3-chlorophenyl)sulfonyl)-N-(pyrrolidin-3-yl)-1H-pyrrolo[3,2-c]quinolin-4-amine] | 3 | 1010 | 21 | 9 | 69 | 10 | 4990 | 2350 | 
O=S(=O)(c1cccc(Cl)c1)n1ccc2c(N[C@@H]3CCNC3)nc3ccccc3c21 [Compound 7, (R)-1-((3-chlorophenyl)sulfonyl)-N-(pyrrolidin-3-yl)-1H-pyrrolo[3,2-c]quinolin-4-amine] | 10 | 754 | 2 | -1 | 82 | 3 | 3940 | 2680 | inhibition at 1 µM (H1 receptors): 17%
O=S(=O)(c1cccc(Cl)c1)n1ccc2c(N3CCNCC3)nc3ccccc3c21 [Compound 29, 1-((3-chlorophenyl)sulfonyl)-4-(piperazin-1-yl)-1H-pyrrolo[3,2-c]quinoline] | 10 |  | 13 | -11 | 66 | >10 |  |  | melting point: 161 to 163 °C; Ki (dopamine D2L receptor; read-out: Ki D2, cloned human receptor in HEK293, three independent experiments, SEM ± 22%): 1340 nM; Ki (5-HT7 receptor; read-out: Ki 5-HT7): 1790 nM; Ki (5-HT1A receptor; [3]): 773 nM
O=S(=O)(c1cccc(F)c1)n1ccc2c(N3CCNCC3)nc3ccccc3c21 [Compound 30, 1-((3-fluorophenyl)sulfonyl)-4-(piperazin-1-yl)-1H-pyrrolo[3,2-c]quinoline] | 10 |  |  |  |  | 10 |  |  | Ki (5-HT1A receptor; [3]): 437 nM
Nc1ccc(S(=O)(=O)n2ccc3c(N4CCNCC4)nc4ccccc4c32)cc1 [Compound 42, 1-(4-(aminophenyl)sulfonyl)-4-(piperazin-1-yl)-1H-pyrrolo[3,2-c]quinoline] | 3 |  |  |  |  | 0.1 |  |  | displacement % at 10^−6M, 5-HT6 (5-HT6 receptor): 97^c %
O=S(=O)(c1cccc2ccccc12)n1ccc2c(N3CCNCC3)nc3ccccc3c21 [Compound 43, 1-(naphthalen-1-ylsulfonyl)-4-(piperazin-1-yl)-1H-pyrrolo[3,2-c]quinoline] |  | 4010 |  |  |  |  | 1990 | 711 | melting point: 158 to 160 °C
COc1ccc(NS(=O)(=O)c2sc3ccc(Cl)cc3c2C)cc1N1CCNCC1 [SB-271046, reference compound] |  |  |  |  |  |  |  |  | dose effective against PCP-induced cognitive deficit in NOR test (Sprague-Dawley rats): 1 mg/kg; active dose in the conflict drinking test (Vogel test), increasing number of licks and shocks received (Wistar rats [1]; rats): ≤ 10 mg/kg; effective dose in the forced swim test (reference compounds) (Wistar rats [2]; rats, antidepressant-like activity, imipramine increased climbing time): 10 mg/kg
